Laboratory results as given in US12029751B2, “Therapeutic agent for nervous system disease” (OSAKA UNIVERSITY, priority 2017, dated 2024).

Experiments:
[1] = tested on: cerebral cortical neurons; experiment: LDH assay, necrosis inhibiting effect under oxygen-glucose deprivation (OGD) stress; format: cell-based, rat; details: 10 μM methylcobalamin 30 minutes before OGD stress (3 hours), measured after 24 hours
From the text: Cerebral cortical neurons were collected and cultured by a conventional method. Cerebral cortex was dissected from a fetus of a Sprague-Dawley (SD) rat (18th day of pregnancy) and recovered in ice-cooled Dulbecco's Modified Eagle Medium (DMEM) containing 10% fetal bovine serum (FBS) and 1% penicillin/streptomycin. The pia mater and blood vessels were removed, and the remaining cerebral cortex was transferred to DMEM (containing 1% penicillin/streptomycin and no FBS) and cut into small pieces having a size of 1 mm by surgical scissors. Papain (final concentration, 2 mg/ml) was added to the cell mixture, and the mixture was allowed to react at 37° C. for 30 minutes. DNase I (70 U/ml) was added to the reaction mixture and reaction was carried out for 30 seconds. Then, DMEM containing 10% FBS and 1% penicillin/streptomycin was added to terminate the reaction. […]
To the cerebral cortical neurons (Example 1-1) cultured on a PLL-coated 6-well chamber slide, 10 μM methylcobalamin was added at 30 minutes before exposure to oxygen-glucose deprivation (OGD) stress. […] After 24 hours, the supernatant was collected, and LDH activity was measured using Cytotoxicity Detection Kit^PLUS (SIGMA). LDH activities of the control group and the methylcobalamin addition group were calculated as proportions (%) with respect to the LDH activity of the high control.

[2] = tested on: cerebral cortical neurons; experiment: Neurite outgrowth assay (axon outgrowth promoting effect); format: cell-based, rat; details: for average length of axons: 72 hours after cell seeding
From the text: Cerebral cortical neurons were collected and cultured by a conventional method. Cerebral cortex was dissected from a fetus of a Sprague-Dawley (SD) rat (18th day of pregnancy) and recovered in ice-cooled Dulbecco's Modified Eagle Medium (DMEM) containing 10% fetal bovine serum (FBS) and 1% penicillin/streptomycin. The pia mater and blood vessels were removed, and the remaining cerebral cortex was transferred to DMEM (containing 1% penicillin/streptomycin and no FBS) and cut into small pieces having a size of 1 mm by surgical scissors. Papain (final concentration, 2 mg/ml) was added to the cell mixture, and the mixture was allowed to react at 37° C. for 30 minutes. DNase I (70 U/ml) was added to the reaction mixture and reaction was carried out for 30 seconds. Then, DMEM containing 10% FBS and 1% penicillin/streptomycin was added to terminate the reaction. The cell mixture was centrifuged at 800 rpm, the residue was re-suspended in DMEM containing 10% FBS and 1% penicillin/streptomycin, and the suspension was seeded on a dish coated with poly-L lysine (PLL). At 4 hours after the cell seeding, the medium was replaced with Neurobasal medium (containing 10% B27 supplement and 1% penicillin/streptomycin).
The cerebral cortical neurons (Example 1-1) were seeded, and the drug was added in different concentrations at 24 hours. The concentrations of methylcobalamin added were 1, 10, and 100 nM and 1, 10, and 100 μM. At 72 hours after the cell seeding, immunofluorescent staining was performed using an anti-TuJ1 antibody, and the lengths of axons (the longest neurite length per neuron) were measured. The measurement was performed on cells that were not in contact with other cells. In each evaluation, at least 30 neural axons were measured, and the mean of the obtained values was calculated and designated as a measured value.

[3] = tested on: microglia cell line (6-3 cells); experiment: Western blot of M1 markers (iNOS, IL-1β) and M2 markers (Arg1, CD206) in microglia; format: cell-based
Procedure: To a microglia cell line (6-3 cells), LPS (100 ng/ml) and an anti-inflammatory cytokine IL-4 (20 ng/ml) were added. Methylcobalamin solutions each having a different concentration ranging from 1 nM to 1 mM were added to the mixture, and proteins were recovered from each mixture at 1 and 3 days after the addition. Electrophoresis and transfer to a membrane were performed, the membrane was blocked, and the cells were allowed to react with each of primary antibodies against M1 markers (iNOS and IL-1β) and M2 markers (Arg1 and CD206) at 4° C. overnight. Cells were allowed to react with a secondary antibody at room temperature for 1 hour, and bands were detected using a detector.
The primary antibodies used were an anti-iNOS antibody, an anti-IL-1β antibody, an anti-Arg1 antibody, and an anti-CD206 (a mannose receptor) antibody. The secondary antibody used was an Anti-Rabbit IgG, HRP-Linked Whole Ab Sheep.

In the case of C/C1=C2/[N-][C@H]([C@H](CC(N)=O)[C@@]2(C)CCC(=O)NC[C@@H](C)OP(=O)([O-])O[C@H]2[C@@H](O)[C@@H](n3cnc4cc(C)c(C)cc43)O[C@@H]2CO)[C@]2(C)N=C(/C(C)=C3N=C(/C=C4N=C1[C@@H](CCC(N)=O)C\4(C)C)[C@@H](CCC(N)=O)[C@]\3(C)CC(N)=O)[C@@H](CCC(N)=O)[C@]2(C)CC(N)=O.[CH3-].[Co+3] [MeCbl, methylcobalamin], the “LDH activity as proportion with respect to the high control” value [1] is reported as 1.3%, the “LDH activity as proportion with respect to the high control” value ([1]; listed as methylcobalamin) is reported as “significantly decreased” and the average length of axons ([2]; MeCbl 1 nM) is reported as 67.2 µm. For the same compound, the average length of axons ([2]; MeCbl 10 nM) was 71.2 µm, the average length of axons ([2]; MeCbl 100 nM) was 75.2 µm and the average length of axons ([2]; MeCbl 1 μM) was 79.9 µm. The “average length of axons” value ([2]; MeCbl 1 μM, listed as methylcobalamin) was “significantly promoted”, the average length of axons ([2]; MeCbl 10 μM) was 86.4 µm and the “average length of axons” value ([2]; MeCbl 10 μM, listed as methylcobalamin) was “significantly promoted”. The average length of axons ([2]; MeCbl 100 μM) was 66.2 µm, the “methylcobalamin concentration at peak of axon outgrowth promotion” value ([2]; concentrations 1 nM to 100 μM tested) was 10 µM and the “amount of Arg1 protein as compared with IL-4 alone” value ([3]; IL-4 + 1 nM to 10 μM methylcobalamin) was “significantly increased”. For the same compound, the “amount of CD206 as compared with IL-4 alone” value ([3]; IL-4 + 10 nM to 100 nM methylcobalamin) was “significantly increased”, the “Arg1 (amount of protein, IL-4 alone = 1.00)” value ([3]; MeCbl 1 nM) was 1.78 and the “CD206 (amount of protein, IL-4 alone = 1.00)” value ([3]; MeCbl 1 nM) was 1.11. For the same compound, the “Arg1 (amount of protein, IL-4 alone = 1.00)” value ([3]; MeCbl 10 nM) was 2.03, the “CD206 (amount of protein, IL-4 alone = 1.00)” value ([3]; MeCbl 10 nM) was 1.42 and the “Arg1 (amount of protein, IL-4 alone = 1.00)” value ([3]; MeCbl 100 nM) was 2.72. The “CD206 (amount of protein, IL-4 alone = 1.00)” value ([3]; MeCbl 100 nM) was 1.39, the “Arg1 (amount of protein, IL-4 alone = 1.00)” value ([3]; MeCbl 1 μM) was 2.20 and the “CD206 (amount of protein, IL-4 alone = 1.00)” value ([3]; MeCbl 1 μM) was 1.17. For the same compound, the “Arg1 (amount of protein, IL-4 alone = 1.00)” value ([3]; MeCbl 10 μM) was 2.08, the “CD206 (amount of protein, IL-4 alone = 1.00)” value ([3]; MeCbl 10 μM) was 1.17 and the “Arg1 (amount of protein, IL-4 alone = 1.00)” value ([3]; MeCbl 100 μM) was 1.37. For the same compound, the “CD206 (amount of protein, IL-4 alone = 1.00)” value ([3]; MeCbl 100 μM) was 1.24, the “Arg1 (amount of protein, IL-4 alone = 1.00)” value ([3]; MeCbl 1 mM) was 0.59 and the “CD206 (amount of protein, IL-4 alone = 1.00)” value ([3]; MeCbl 1 mM) was 1.11. The “amount of iNOS protein as compared with LPS alone” value ([3]; LPS + at least 10 nM methylcobalamin) was “significantly decreased”, the “amount of IL-1β protein as compared with LPS alone” value ([3]; LPS + at least 1 μM methylcobalamin) was “significantly decreased” and the “IL-1β (amount of protein, LPS alone = 1.00)” value ([3]; MeCbl 1 nM) was 1.02. The “iNOS (amount of protein, LPS alone = 1.00)” value ([3]; MeCbl 1 nM) was 0.87, the “IL-1β (amount of protein, LPS alone = 1.00)” value ([3]; MeCbl 10 nM) was 0.95 and the “iNOS (amount of protein, LPS alone = 1.00)” value ([3]; MeCbl 10 nM) was 0.74. For the same compound, the “IL-1β (amount of protein, LPS alone = 1.00)” value ([3]; MeCbl 100 nM) was 0.83, the “iNOS (amount of protein, LPS alone = 1.00)” value ([3]; MeCbl 100 nM) was 0.76 and the “IL-1β (amount of protein, LPS alone = 1.00)” value ([3]; MeCbl 1 μM) was 0.72. The “iNOS (amount of protein, LPS alone = 1.00)” value ([3]; MeCbl 1 μM) was 0.61, the “IL-1β (amount of protein, LPS alone = 1.00)” value ([3]; MeCbl 10 μM) was 0.58 and the “iNOS (amount of protein, LPS alone = 1.00)” value ([3]; MeCbl 10 μM) was 0.46. For the same compound, the “IL-1β (amount of protein, LPS alone = 1.00)” value ([3]; MeCbl 100 μM) was 0.53, the “iNOS (amount of protein, LPS alone = 1.00)” value ([3]; MeCbl 100 μM) was 0.36 and the “IL-1β (amount of protein, LPS alone = 1.00)” value ([3]; MeCbl 1 mM) was 0.32. The “iNOS (amount of protein, LPS alone = 1.00)” value ([3]; MeCbl 1 mM) was 0.05.
